One may read the DC50 as the concentration giving 50% degradation.

What all share (type): cell-based
For one experiment, the system named is MV-411 cell line. As to the kind of experiment: Inhibition of cell proliferation, MV-411 (CCK-8). The conditions noted are these: Homo sapiens, MV4-11, 120 h, MV411 cells, 5 days, read-out: Inhibition activity on the proliferation of different cell lines MV411 (IC50). As to the method: • MV-411 cell line (COBIER, CBP-60522) • FBS (GEMINI, Cat. No. 900-108) • 0.01M PBS (Biosharp, Cat. No. 162262) • IMDM (Hyclone, Cat. No. SH30228.01) • Penicillin-Streptomycin (Gibco, Cat. No. 15140122) • DMSO (Sigma, Cat. No. D5879) • Cell counting kit-8 (Signalway Antibody, Cat. No. CP002) • Centrifuge Tube, 15 ml (Excell Bio, Cat. No. CS015-0001) • Cell Culture Dish, (WHB, Cat. No. CS016-0128) • 96-well cell culture cluster (Corning, Cat. No. 3599)
• (1) Cell culture medium: IMDM medium+10% FBS+1% Pen Strep; • (2) PBS buffer: PBS powder was dissolved in 2 L of ultrapure water and sterilized;
(§1) (1) MV-411 cells were cultured in the cell culture medium, and then well-growing cells were selected and inoculated in a 96-well plate at 80 μL/well, with 2×10^4 cells/well. The plate was incubated overnight in a 5% CO2 cell incubator at 37° C.
(§2) (2) 10 mM storage solution of each drug was prepared using dimethylsulfoxide (DMSO). The stock solution was diluted in a ratio of 1:3 with DMSO before use, and then the solution was serially diluted in a ratio of 1:3, to obtain 9 gradient concentrations. Each concentration was further diluted with the medium in a ratio of 1:200 (to ensure that the DMSO concentration in the culture system was 0.1%). Two wells were set for each concentration. 20 μL of each compound solution was added to the cell culture well (with a final concentration of 10 μM, 3.3 μM, 1.1 μM . . . ). The plate was gently shaken and mixed. Additionally, 3 negative control wells (only containing cells) and 3 blank control wells (only containing the medium) were included (6 wells were each added with 20 μL of DMSO diluted with the medium in a ratio of 1:200).
(§3) (1) After 5 days of cultivation, 10 μL of CCK-8 was added to each well, and then the plate was further cultured for 3 h at 37° C. in a 5% CO2 cell incubator.
(§4) (2) The absorbance (OD value) was measured at 450 nm with a multifunctional microplate reader. (3) The data were analyzed using the Dose-response-inhibition equation in GraphPad Prism8 software to obtain the IC50 value.

Another experiment has as its target T1, SHP2 protein (Homo sapiens, UniProt Q06124).
T1 sequence (Q06124 1-593): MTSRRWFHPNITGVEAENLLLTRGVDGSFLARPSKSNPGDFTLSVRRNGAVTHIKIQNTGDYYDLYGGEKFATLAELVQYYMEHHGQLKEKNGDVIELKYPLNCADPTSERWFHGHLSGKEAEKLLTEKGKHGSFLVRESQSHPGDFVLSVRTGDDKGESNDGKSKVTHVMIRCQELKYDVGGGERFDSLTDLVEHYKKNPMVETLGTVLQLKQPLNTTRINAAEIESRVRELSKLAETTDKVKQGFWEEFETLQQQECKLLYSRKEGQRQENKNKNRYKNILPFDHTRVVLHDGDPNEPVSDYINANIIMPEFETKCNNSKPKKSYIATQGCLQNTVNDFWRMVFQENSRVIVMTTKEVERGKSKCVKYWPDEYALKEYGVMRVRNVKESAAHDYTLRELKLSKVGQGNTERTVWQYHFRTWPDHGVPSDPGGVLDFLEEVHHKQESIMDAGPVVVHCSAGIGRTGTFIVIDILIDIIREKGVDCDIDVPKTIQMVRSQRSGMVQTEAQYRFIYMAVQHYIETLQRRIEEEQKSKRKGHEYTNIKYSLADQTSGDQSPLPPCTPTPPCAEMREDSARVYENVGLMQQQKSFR
Briefly: Degradation activity on SHP2 protein in MIA Paca-2 cells (Western blot, DC50). On the set-up: endogenous in cells; host or cells: MIA Paca-2 cells. The conditions noted are these: read-out: Degradation activity for differenct cell lines MIA Paca-2 (DC50). Put shortly: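 DC50 is the concentration degrading 50% of SHP2 relative to DMSO control. It was derived by fitting Western blot band densitometry (anti-SHP2, GAPDH reference) from cells exposed 24 h to 0.1–100 nM compound in 0.1% DMSO.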

The subject of the next experiment is KYSE 520. Briefly: Inhibition of cell proliferation, KYSE 520 (CCK-8). As to conditions: Homo sapiens, KYSE 520 cells, read-out: Inhibition activity on the proliferation of different cell lines KYSE 520 (IC50). As to the method: as §1, §2, §3, §4
Using a similar method, the IC50 value (nM) for the inhibitory activity of the compound according to the present invention against different cell lines was obtained, and the results are shown in Table 3 (++++: IC50>5 μM; +++: 1 μM<IC50<5 μM; ++: IC50<1 μM).

Turning to `CC1(N)CCN(c2cnc(Sc3cccc(NC(=O)CCCCCCCCN4CCN(c5ccc(C(=O)NCc6ccc7c(c6)CN(C6CCC(=O)NC6=O)C7=O)nn5)CC4)c3)cn2)CC1` (stereo not shown) [Compound 63], in the experiment with MV-411 cell line, the IC50 is less than 1 µM. Besides, the DC50 on SHP2 protein was less than 0.1 µM.

In the case of `CC1(N)CCN(c2cnc(Sc3cccc(NC(=O)CCCCCCCCN4C5CCC4CN(c4ccc(C(=O)NCc6ccc7c(c6)CN(C6CCC(=O)NC6=O)C7=O)nn4)C5)c3)cn2)CC1` (stereo not shown) [Compound 119], the IC50 in the experiment with MV-411 cell line is less than 1 µM. The half-maximal degradation concentration (DC50) on SHP2 protein is less than 0.1 µM.

As for `CCC1(N)CCN(c2cnc(Sc3cccc(NC(=O)CCCCCCN4CC5(CCN(c6ccc(C(=O)NCc7ccc8c(c7)CN(C7CCC(=O)NC7=O)C8=O)nn6)C5)C4)c3)cn2)CC1` (stereo not shown) [Compound 161], the IC50 in the experiment with MV-411 cell line is less than 1 µM. Also, at SHP2 protein, the 50% degradation concentration (DC50) was less than 0.1 µM.

In the case of `NC1(CO)CCN(c2cnc(Sc3cccc(NC(=O)CCCCCCN4CC5(CCN(c6ccc(C(=O)NCc7ccc8c(c7)CN(C7CCC(=O)NC7=O)C8=O)nn6)C5)C4)c3)cn2)CC1` (stereo not shown) [Compound 168], in the experiment with MV-411 cell line, the IC50 was less than 1 µM. The DC50 at SHP2 protein was less than 0.1 µM.

Regarding `CC1(N)CCN(c2cnc(Sc3cccc(NC(=O)CCCCCCCCN4CCN(c5ccc(C(=O)NCc6ccc7c(c6)CN(C6CCC(=O)NC6=O)C7=O)nn5)CC4C(F)(F)F)c3)cn2)CC1` (stereo not shown) [Compound 174], in the experiment with MV-411 cell line, the IC50 was 1 to 5 µM. For the same molecule, the DC50 on SHP2 protein is less than 0.1 µM.

As to `Cc1ncsc1-c1ccc([C@H](C)NC(=O)[C@@H]2C[C@@H](O)CN2C(=O)[C@@H](NC(=O)CCCCCCCCN2CCN(C(=O)CCC(=O)Nc3cccc(Sc4ncc(N5CCC(C)(N)CC5)nc4N)c3Cl)CC2)C(C)(C)C)cc1` [Compound 999], the IC50 with MV-411 cell line was less than 1 µM; with KYSE 520 it was 1 to 5 µM. Besides, on SHP2 protein, the DC50 was less than 0.1 µM.

For the origin of these results see patent US20240383908A1, “SYNTHESIS AND APPLICATION OF PHOSPHATASE DEGRADER” (HINOVA PHARMACEUTICALS INC., priority 2021, published 2024).
